{"source": "patent US10670605B2", "about": "“Cysteine reactive probes and uses thereof” (The Scripps Research Institute, priority 2015, dated 2020)", "experiment_in_all_cases": "Competitive isoTOP-ABPP, cell lysates", "assay_type_in_all_cases": "binding", "key": {"UBE2S C118 (Q16763)": {"molecular_target": "T1, UBE2S C118 (Q16763) (Homo sapiens, UniProt Q16763)", "T1 sequence (Q16763 1-222)": "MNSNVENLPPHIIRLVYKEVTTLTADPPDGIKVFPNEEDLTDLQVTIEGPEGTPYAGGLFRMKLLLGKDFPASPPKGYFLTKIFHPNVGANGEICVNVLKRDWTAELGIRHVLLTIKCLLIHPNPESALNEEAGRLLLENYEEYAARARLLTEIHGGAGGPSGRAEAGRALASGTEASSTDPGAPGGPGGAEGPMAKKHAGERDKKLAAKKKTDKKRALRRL"}, "USP22 C171 (Q9UPT9)": {"molecular_target": "T2, USP22 C171 (Q9UPT9) (Homo sapiens, UniProt Q9UPT9)", "T2 sequence (Q9UPT9 1-525)": "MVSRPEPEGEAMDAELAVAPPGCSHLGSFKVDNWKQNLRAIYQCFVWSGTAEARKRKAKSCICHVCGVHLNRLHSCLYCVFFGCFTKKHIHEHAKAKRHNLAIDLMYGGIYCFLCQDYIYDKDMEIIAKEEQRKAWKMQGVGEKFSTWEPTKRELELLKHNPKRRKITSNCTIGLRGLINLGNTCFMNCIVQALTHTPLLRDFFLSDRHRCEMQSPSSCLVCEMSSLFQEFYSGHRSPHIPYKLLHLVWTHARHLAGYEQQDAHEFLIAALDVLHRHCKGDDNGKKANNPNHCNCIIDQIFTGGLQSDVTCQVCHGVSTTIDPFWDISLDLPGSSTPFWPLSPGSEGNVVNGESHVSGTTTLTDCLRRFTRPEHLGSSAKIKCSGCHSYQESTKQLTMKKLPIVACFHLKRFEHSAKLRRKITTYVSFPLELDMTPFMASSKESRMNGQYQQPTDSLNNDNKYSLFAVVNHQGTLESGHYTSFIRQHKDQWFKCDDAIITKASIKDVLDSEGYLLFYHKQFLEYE", "settings": "for isoTOP-ABPP ratio (reactivity profile), Q9UPT9_C171: 500 μm in-vitro ramos; for isoTOP-ABPP reactivity ratio, Q9UPT9_C171: 500 μm"}, "ACAT1 C196 (P24752)": {"molecular_target": "T3, ACAT1 C196 (P24752) (Homo sapiens, UniProt P24752)", "T3 sequence (P24752 34-427)": "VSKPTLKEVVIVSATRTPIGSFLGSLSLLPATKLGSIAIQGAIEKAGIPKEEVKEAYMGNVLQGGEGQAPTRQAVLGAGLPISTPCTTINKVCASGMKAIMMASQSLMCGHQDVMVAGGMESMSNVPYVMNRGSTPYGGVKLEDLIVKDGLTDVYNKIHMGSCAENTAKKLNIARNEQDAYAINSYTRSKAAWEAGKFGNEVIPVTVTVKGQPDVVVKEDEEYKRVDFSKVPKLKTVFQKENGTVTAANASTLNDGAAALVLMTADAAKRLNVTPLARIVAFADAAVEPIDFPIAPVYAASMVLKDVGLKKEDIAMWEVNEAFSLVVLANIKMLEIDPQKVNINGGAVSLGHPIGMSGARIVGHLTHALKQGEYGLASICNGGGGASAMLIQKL", "settings": "for isoTOP-ABPP ratio, P24752_C196: 500 μM, invitro; for isoTOP-ABPP reactivity ratio, P24752_C196: 500 μm"}, "ACAT1 C126 (P24752)": {"molecular_target": "T4, ACAT1 C126 (P24752) (Homo sapiens, UniProt P24752)", "T4 sequence (P24752 34-427)": "T3 sequence (P24752 34-427)", "settings": "for isoTOP-ABPP ratio, P24752_C126: 500 μM, invitro; for isoTOP-ABPP reactivity ratio, P24752_C126: 500 μm"}, "ACAT1 C413 (P24752)": {"molecular_target": "T5, ACAT1 C413 (P24752) (Homo sapiens, UniProt P24752)", "T5 sequence (P24752 34-427)": "T3 sequence (P24752 34-427)", "settings": "for isoTOP-ABPP ratio P24752_C413: 500 μM, invitro; for isoTOP-ABPP reactivity ratio, P24752_C413: 500 μm"}, "ACAT1 C119 (P24752)": {"molecular_target": "T6, ACAT1 C119 (P24752) (Homo sapiens, UniProt P24752)", "T6 sequence (P24752 34-427)": "T3 sequence (P24752 34-427)", "settings": "for isoTOP-ABPP ratio P24752_C119: 500 μM, invitro; for isoTOP-ABPP reactivity ratio, P24752_C119: 500 μm"}}}
{"compound": "O=C(/C=C/c1ccccc1)Nc1cc(C(F)(F)F)cc(C(F)(F)F)c1", "note": "[compound 26]", "values": [{"measurement": "isoTOP-ABPP ratio (reactivity profile), Q16763_C118", "setting": "UBE2S C118 (Q16763); 500 μm in-vitro ramos", "value": 0.9}, {"measurement": "isoTOP-ABPP ratio (reactivity profile), Q9UPT9_C171", "setting": "USP22 C171 (Q9UPT9)", "value": 1.0}, {"measurement": "isoTOP-ABPP ratio (reactivity profile), P24752_C196", "setting": "ACAT1 C196 (P24752); 500 μm in-vitro ramos", "value": 1.0}, {"measurement": "isoTOP-ABPP ratio (reactivity profile), P24752_C126", "setting": "ACAT1 C126 (P24752); 500 μm in-vitro ramos", "value": 0.9}, {"measurement": "isoTOP-ABPP ratio (reactivity profile), P24752_C413", "setting": "ACAT1 C413 (P24752); 500 μm in-vitro ramos", "value": 0.9}, {"measurement": "isoTOP-ABPP ratio (reactivity profile), P24752_C119", "setting": "ACAT1 C119 (P24752); 500 μm in-vitro ramos", "value": 1.0}]}
{"compound": "COc1ccccc1OCCNC(=O)CCl", "note": "[compound 28]", "values": [{"measurement": "isoTOP-ABPP ratio (reactivity profile), Q16763_C118", "setting": "UBE2S C118 (Q16763); 500 μm in-vitro ramos", "value": 0.8}, {"measurement": "isoTOP-ABPP ratio (reactivity profile), Q16763_C118", "setting": "UBE2S C118 (Q16763); 500 μm in-vitro ramos_231", "value": 1.0}, {"measurement": "isoTOP-ABPP ratio (reactivity profile), Q9UPT9_C171", "setting": "USP22 C171 (Q9UPT9)", "value": 1.3}, {"measurement": "isoTOP-ABPP ratio (reactivity profile), P24752_C196", "setting": "ACAT1 C196 (P24752); 500 μm in-vitro ramos", "value": 1.1}, {"measurement": "isoTOP-ABPP ratio (reactivity profile), P24752_C196", "setting": "ACAT1 C196 (P24752); 500 μm in-vitro ramos_231", "value": 1.0}, {"measurement": "isoTOP-ABPP ratio (reactivity profile), P24752_C126", "setting": "ACAT1 C126 (P24752); 500 μm in-vitro ramos", "value": 1.6}, {"measurement": "isoTOP-ABPP ratio (reactivity profile), P24752_C126", "setting": "ACAT1 C126 (P24752); 500 μm in-vitro ramos_231", "value": 1.7}, {"measurement": "isoTOP-ABPP ratio (reactivity profile), P24752_C413", "setting": "ACAT1 C413 (P24752); 500 μm in-vitro ramos", "value": 1.4}, {"measurement": "isoTOP-ABPP ratio (reactivity profile), P24752_C413", "setting": "ACAT1 C413 (P24752); 500 μm in-vitro ramos_231", "value": 1.2}, {"measurement": "isoTOP-ABPP ratio (reactivity profile), P24752_C119", "setting": "ACAT1 C119 (P24752); 500 μm in-vitro ramos", "value": 1.1}, {"measurement": "isoTOP-ABPP ratio (reactivity profile), P24752_C119", "setting": "ACAT1 C119 (P24752); 500 μm in-vitro ramos_231", "value": 1.1}]}
{"compound": "O=C(CCl)N1CCN(S(=O)(=O)c2ccccc2F)CC1", "note": "[compound 10]", "values": [{"measurement": "isoTOP-ABPP ratio, Q16763_C118", "setting": "UBE2S C118 (Q16763); 500 μM, invitro, 231", "value": 1.7}, {"measurement": "isoTOP-ABPP ratio, Q9UPT9_C171", "setting": "USP22 C171 (Q9UPT9); 500 μM, invitro, ramos", "value": 3.8}, {"measurement": "isoTOP-ABPP ratio, P24752_C196", "setting": "ACAT1 C196 (P24752); 231", "value": 2.5}, {"measurement": "isoTOP-ABPP ratio, P24752_C196", "setting": "ACAT1 C196 (P24752); ramos", "value": 1.7}, {"measurement": "isoTOP-ABPP ratio, P24752_C126", "setting": "ACAT1 C126 (P24752); 231", "value": 3.2}, {"measurement": "isoTOP-ABPP ratio, P24752_C126", "setting": "ACAT1 C126 (P24752); ramos", "value": 1.5}, {"measurement": "isoTOP-ABPP ratio P24752_C413", "setting": "ACAT1 C413 (P24752); 231", "value": 13.0}, {"measurement": "isoTOP-ABPP ratio P24752_C413", "setting": "ACAT1 C413 (P24752); ramos", "value": 1.6}, {"measurement": "isoTOP-ABPP ratio P24752_C119", "setting": "ACAT1 C119 (P24752); 231", "value": 1.5}, {"measurement": "isoTOP-ABPP ratio P24752_C119", "setting": "ACAT1 C119 (P24752); ramos", "value": 1.4}]}
{"compound": "Cc1ccc(C=C(C#N)C(=O)NCCN2CCOCC2)cc1", "note": "[compound 41]", "values": [{"measurement": "isoTOP-ABPP reactivity ratio, Q16763_C118", "setting": "UBE2S C118 (Q16763); 500 μm, in-vitro_ramos", "value": 3.4}, {"measurement": "isoTOP-ABPP reactivity ratio, Q9UPT9_C171", "setting": "USP22 C171 (Q9UPT9); in-vitro_ramos", "value": 1.4}, {"measurement": "isoTOP-ABPP reactivity ratio, Q9UPT9_C171", "setting": "USP22 C171 (Q9UPT9); in-vitro_ramos_231", "value": 3.0}, {"measurement": "isoTOP-ABPP reactivity ratio, P24752_C196", "setting": "ACAT1 C196 (P24752); in-vitro_ramos", "value": 1.0}, {"measurement": "isoTOP-ABPP reactivity ratio, P24752_C196", "setting": "ACAT1 C196 (P24752); in-vitro_ramos_231", "value": 1.3}, {"measurement": "isoTOP-ABPP reactivity ratio, P24752_C126", "setting": "ACAT1 C126 (P24752); in-vitro_ramos", "value": 0.9}, {"measurement": "isoTOP-ABPP reactivity ratio, P24752_C126", "setting": "ACAT1 C126 (P24752); in-vitro_ramos_231", "value": 1.0}, {"measurement": "isoTOP-ABPP reactivity ratio, P24752_C413", "setting": "ACAT1 C413 (P24752); in-vitro_ramos", "value": 0.9}, {"measurement": "isoTOP-ABPP reactivity ratio, P24752_C413", "setting": "ACAT1 C413 (P24752); in-vitro_ramos_231", "value": 0.8}, {"measurement": "isoTOP-ABPP reactivity ratio, P24752_C119", "setting": "ACAT1 C119 (P24752); in-vitro_ramos", "value": 0.8}, {"measurement": "isoTOP-ABPP reactivity ratio, P24752_C119", "setting": "ACAT1 C119 (P24752); in-vitro_ramos_231", "value": 1.0}]}
